Patent US20240366612A1, “COMPOUNDS AND METHODS FOR MODULATING NUCLEIC ACID SPLICING” (REMIX THERAPEUTICS INC., priority 2021, published 2024)
pIC50: −log10 of the molar value. Counter-ions that a name gives are not always drawn.

What was measured:
Assay type in all cases: cell-based
[1] = tested on: HTT mRNA; assay: Splicing RT-qPCR assay, HTT canonical (CJ) and alternative (AJ) junction mRNA; details: Homo sapiens, A673 or K562 cells, 24 hours treatment; for pIC50: decrease in CJ mRNA; for AC50: increase in AJ mRNA
Outline: (§1)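 Compound-treated A673 or K562 cells (11-point 3-fold dilution, top dose 10 uM final, DMSO ≤0.25%) were incubated for 24 h at 37° C. Lysates underwent one-step RT-qPCR for canonical and alternative-exon junction isoforms. Normalization used PPIA for A673 and GAPDH or GUSB for K562.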

[2] = tested on: MYB mRNA; assay: Splicing RT-qPCR assay, MYB canonical (CJ) and alternative (AJ) junction mRNA; details: Homo sapiens, A673 or K562 cells, 24 hours treatment; for pIC50: decrease in CJ mRNA; for AC50: increase in AJ mRNA
Outline: as §1

[3] = tested on: HTT CJ mRNA; assay: Gene panel canonical junction qPCR assay, HTT; details: Homo sapiens, larger gene panel, read-out: HTT IC50 (decrease in CJ mRNA levels)
Outline: (§2)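 A673 or K562 cells treated 24 h with 11-point 3-fold dilutions (top 10 µM, ≤0.25% DMSO) at 37 °C. Canonical exon-junction mRNA measured by probe-based RT-qPCR, normalized to GAPDH, GUSB or PPIA and DMSO (2^−ΔΔCt), converted to percent response over a fixed ΔCt window; IC50 from 4-parameter fit.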

[4] = tested on: MYB CJ mRNA; assay: Gene panel canonical junction qPCR assay, MYB; details: Homo sapiens, larger gene panel, read-out: MYB IC50 (decrease in CJ mRNA levels)
Outline: as §2

[5] = tested on: SMN2 CJ mRNA; assay: Gene panel canonical junction qPCR assay, SMN2; details: Homo sapiens, larger gene panel, read-out: SMN2 IC50 (decrease in CJ mRNA levels)
Outline: as §2

[6] = tested on: Target C CJ mRNA; assay: Gene panel canonical junction qPCR assay, Target C; details: Homo sapiens, larger gene panel, read-out: Target C IC50 (decrease in CJ mRNA levels)
Outline: as §2

| SMILES | pIC50 [1] | AC50 [1] [nM] | pIC50 [2] | AC50 [2] [nM] | pIC50 [3] | pIC50 [4] | pIC50 [5] | pIC50 [6] |
| --- | --- | --- | --- | --- | --- | --- | --- | --- |
| Cc1cn2cc(-n3cnc4nc(N5CCN(C)CC5)sc4c3=O)cc(F)c2n1 [Compound 228, 6-(8-fluoro-2-methylimidazo[1,2-a]pyridin-6-yl)-2-(4-methylpiperazin-1-yl)thiazolo[4,5-d]pyrimidin-7(6H)-one] | 5.00 to 6.00 | 1000 to 10000 | 5.00 to 6.00 | 1000 to 10000 | 5.00 to 6.00 | 5.00 to 6.00 | 5.00 to 6.00 | 5.00 to 6.00 |
| Cc1cn2cc(-n3cnc4nc(N5CCNCC5)sc4c3=O)cc(C(F)(F)F)c2n1 [Compound 229, 6-(2-methyl-8-(trifluoromethyl)imidazo[1,2-a]pyridin-6-yl)-2-(piperazin-1-yl)thiazolo[4,5-d]pyrimidin-7(6H)-one] | < 5.00 | > 10000 | < 5.00 | > 10000 | < 5.00 | < 5.00 | < 5.00 | < 5.00 |
| Cc1cn2cc(-n3cnc4nc(N5CCN(C)CC5)sc4c3=O)cc(C(F)(F)F)c2n1 [Compound 230, 6-(2-methyl-8-(trifluoromethyl)imidazo[1,2-a]pyridin-6-yl)-2-(4-methylpiperazin-1-yl)thiazolo[4,5-d]pyrimidin-7(6H)-one] | < 5.00 | > 10000 | 6.00 to 7.00 | 100 to 1000 | < 5.00 | < 5.00 | < 5.00 | < 5.00 |
| Cc1cn2nc(-c3nc4ncn(C5CCNCC5)c(=O)c4s3)cc(C)c2n1 [Compound 231, 2-(2,8-dimethylimidazo[1,2-b]pyridazin-6-yl)-6-(piperidin-4-yl)thiazolo[4,5-d]pyrimidin-7(6H)-one] | 6.00 to 7.00 | 100 to 1000 | 6.00 to 7.00 | 100 to 1000 | 6.00 to 7.00 | 6.00 to 7.00 | 5.00 to 6.00 | 5.00 to 6.00 |
| Cc1cn2cc(-c3nc4ncn(C5CCNCC5)c(=O)c4s3)cc(F)c2n1 [Compound 232, 2-(8-fluoro-2-methylimidazo[1,2-a]pyridin-6-yl)-6-(piperidin-4-yl)thiazolo[4,5-d]pyrimidin-7(6H)-one] | > 7.00 | < 100 | 6.00 to 7.00 | 100 to 1000 | > 7.00 | 6.00 to 7.00 | > 7.00 | 6.00 to 7.00 |
| Cc1cc(-c2nc3ncn(C4CCNCC4)c(=O)c3s2)cc2cn(C)nc12 [Compound 233, 2-(2,7-dimethyl-2H-indazol-5-yl)-6-(piperidin-4-yl)thiazolo[4,5-d]pyrimidin-7(6H)-one] | > 7.00 | < 100 | 6.00 to 7.00 | < 100 | > 7.00 | 6.00 to 7.00 | > 7.00 | 6.00 to 7.00 |
| Cc1cc(-c2nc3ncn(C4CCN(C)CC4)c(=O)c3s2)cc2cn(C)nc12 [Compound 234, 2-(2,7-dimethyl-2H-indazol-5-yl)-6-(1-methylpiperidin-4-yl)thiazolo[4,5-d]pyrimidin-7(6H)-one] | 6.00 to 7.00 | 100 to 1000 | 6.00 to 7.00 | < 100 | 6.00 to 7.00 | 6.00 to 7.00 | > 7.00 | 5.00 to 6.00 |
| Cc1cn2cc(-c3cc4ncn(C5CCNCC5)c(=O)c4s3)cc(F)c2n1 [Compound 235, 6-(8-fluoro-2-methylimidazo[1,2-a]pyridin-6-yl)-3-(piperidin-4-yl)thieno[3,2-d]pyrimidin-4(3H)-one] | > 7.00 | < 100 | 6.00 to 7.00 | 100 to 1000 | > 7.00 | 6.00 to 7.00 | > 7.00 | 6.00 to 7.00 |
| Cc1cc(-c2cc3ncn(C4CCNCC4)c(=O)c3s2)cc2cn(C)nc12 [Compound 236, 6-(2,7-dimethyl-2H-indazol-5-yl)-3-(piperidin-4-yl)thieno[3,2-d]pyrimidin-4(3H)-one] | > 7.00 | 100 to 1000 | 6.00 to 7.00 | 100 to 1000 | > 7.00 | 6.00 to 7.00 | > 7.00 | 6.00 to 7.00 |
| Cc1cc(-c2cc3ncn(C4CCN(C)CC4)c(=O)c3s2)cc2cn(C)nc12 [Compound 237, 6-(2,7-dimethyl-2H-indazol-5-yl)-3-(1-methylpiperidin-4-yl)thieno[3,2-d]pyrimidin-4(3H)-one] | 6.00 to 7.00 | 100 to 1000 | 6.00 to 7.00 | < 100 | 6.00 to 7.00 | 6.00 to 7.00 | > 7.00 | 5.00 to 6.00 |
| Cc1cn2nc(-c3cc4ncn(C5CCNCC5)c(=O)c4s3)cc(C)c2n1 [Compound 238, 6-(2,8-dimethylimidazo[1,2-b]pyridazin-6-yl)-3-(piperidin-4-yl)thieno[3,2-d]pyrimidin-4(3H)-one] | 6.00 to 7.00 | 100 to 1000 | 6.00 to 7.00 | 100 to 1000 | 6.00 to 7.00 | 6.00 to 7.00 | > 7.00 | 5.00 to 6.00 |
| Cc1cn2nc(-c3cc4ncn(C5CCN(C)CC5)c(=O)c4s3)cc(C)c2n1 [Compound 239, 6-(2,8-dimethylimidazo[1,2-b]pyridazin-6-yl)-3-(1-methylpiperidin-4-yl)thieno[3,2-d]pyrimidin-4(3H)-one] | 5.00 to 6.00 | 1000 to 10000 | 5.00 to 6.00 | 100 to 1000 | 5.00 to 6.00 | 5.00 to 6.00 | > 7.00 | < 5.00 |
| Cc1cn2cc(-c3nc4sc(C5CCNCC5)cc4c(=O)[nH]3)cc(F)c2n1 [Compound 250, 2-(8-fluoro-2-methylimidazo[1,2-a]pyridin-6-yl)-6-(piperidin-4-yl)thieno[2,3-d]pyrimidin-4(3H)-one] | 6.00 to 7.00 | 100 to 1000 | 6.00 to 7.00 | 100 to 1000 | 6.00 to 7.00 | 6.00 to 7.00 | 6.00 to 7.00 | 6.00 to 7.00 |
| Cc1nc(-c2nc3ncn(C4CCNCC4)c(=O)c3s2)cc2cn(C)nc12 [Compound 251, 2-(2,7-dimethyl-2H-pyrazolo[3,4-c]pyridin-5-yl)-6-(piperidin-4-yl)thiazolo[4,5-d]pyrimidin-7(6H)-one] | 5.00 to 6.00 | 1000 to 10000 | 5.00 to 6.00 | > 10000 | 5.00 to 6.00 | 5.00 to 6.00 | 6.00 to 7.00 | < 5.00 |
| Cn1cc2cc(-c3nc4ncn(C5CCNCC5)c(=O)c4s3)c(O)cc2n1 [Compound 253, 2-(6-hydroxy-2-methyl-2H-indazol-5-yl)-6-(piperidin-4-yl)thiazolo[4,5-d]pyrimidin-7(6H)-one, hydrochloride] | 5.00 to 6.00 | 1000 to 10000 | 5.00 to 6.00 | 1000 to 10000 | 5.00 to 6.00 | 5.00 to 6.00 | 6.00 to 7.00 | 5.00 to 6.00 |
| Cc1cn2cc(-c3nc4sc(C5CCN(C)CC5)cc4c(=O)[nH]3)cc(F)c2n1 [Compound 256, 2-(8-fluoro-2-methylimidazo[1,2-a]pyridin-6-yl)-6-(1-methylpiperidin-4-yl)thieno[2,3-d]pyrimidin-4(3H)-one] | < 5.00 | > 10000 | < 5.00 | > 10000 | < 5.00 | < 5.00 | 5.00 to 6.00 | < 5.00 |
| Cn1cc2cc(-c3cc4ncn(C5CCNCC5)c(=O)c4s3)cc(F)c2n1 [Compound 257] | 5.00 to 6.00 | 1000 to 10000 | 5.00 to 6.00 | 1000 to 10000 | 5.00 to 6.00 | 5.00 to 6.00 | 5.00 to 6.00 | 5.00 to 6.00 |
| Cn1cc2cc(-c3cc4ncn(C5CCNCC5)c(=O)c4s3)c(F)cc2n1 [Compound 258] | 6.00 to 7.00 | 100 to 1000 | 6.00 to 7.00 | 100 to 1000 | 6.00 to 7.00 | 6.00 to 7.00 | > 7.00 | 5.00 to 6.00 |
| Cn1cc2cc(-c3cc4ncn(C5CCNCC5)c(=O)c4s3)cc(C#N)c2n1 [Compound 259] | 5.00 to 6.00 | 1000 to 10000 | 6.00 to 7.00 | 100 to 1000 | 5.00 to 6.00 | 6.00 to 7.00 | > 7.00 | 5.00 to 6.00 |
| COc1cc(-c2cc3ncn(C4CCNCC4)c(=O)c3s2)cnn1 [Compound 260] | 5.00 to 6.00 | 1000 to 10000 | 5.00 to 6.00 | 1000 to 10000 | 5.00 to 6.00 | 5.00 to 6.00 | 5.00 to 6.00 | 5.00 to 6.00 |
| Cc1cn2cc(-c3cc4ncn(C5CCNCC5)c(=O)c4s3)cc(C)c2n1 [Compound 261] | 6.00 to 7.00 | 1000 to 10000 | 6.00 to 7.00 | 100 to 1000 | 6.00 to 7.00 | 6.00 to 7.00 | > 7.00 | 5.00 to 6.00 |
| Cc1cn2nc(-c3cc4ncn(C5CCNCC5)c(=O)c4s3)cc2c(C)n1 [Compound 262] | 6.00 to 7.00 | 100 to 1000 | 6.00 to 7.00 | 100 to 1000 | 6.00 to 7.00 | 6.00 to 7.00 | 6.00 to 7.00 | 6.00 to 7.00 |
